In data set [1] the test system is Mycobacterium tuberculosis H37Rv (ATCC: 25177). Put plainly: Resazurin Microplate Assay (REMA), anti-tubercular activity against H37Rv. It is filed as cell-based. The note with it: 192 h, read-out: Anti-tubercular activity (MIC) H37Rv. (In general: The colour change of resazurin is a common sign of viable cells or microbes.)

Values after ≈ are worked out from the molar mass of the structure shown.

What is called MIC is the lowest concentration that inhibits growth of the organism. As a reminder, the melting point is the temperature, or range, at which the solid turns liquid. `O=c1[nH]c(=O)c2c(-c3c[nH]c4ccccc34)nc(=S)[nH]c2[nH]1` [Compound 4a, 5-(1H-Indol-3-yl)-7-thioxo-7,8-dihydropyrimido[4,5-d]pyrimidine-2,4(1H,3H)-dione] gave a melting point of 114 to 116 °C. In addition, in data set [1], the MIC came to 4 µg/mL (≈ 12.8 µM).
On the same counts, the results for `O=c1[nH]c(=S)[nH]c2[nH]c(=S)nc(-c3c[nH]c4ccccc34)c12` [Compound 4b, 5-(1H-Indol-3-yl)-2,7-dithioxo-2,3,7,8-tetrahydropyrimido[4,5-d]pyrimidin-4(1H)-one] are 188 to 190 °C and 2 µg/mL (≈ 6.11 µM).
For `Cn1c(=O)c2c(-c3c[nH]c4ccccc34)nc(=S)[nH]c2n(C)c1=O` [Compound 4c, 5-(1H-Indol-3-yl)-1,3-dimethyl-7-thioxo-7,8-dihydropyrimido[4,5-d]pyrimidine-2,4(1H,3H)-dione] the same measures were 258 to 260 °C and 1 µg/mL (≈ 2.95 µM).

(Values after US11976076B1 (priority 2023, dated 2024).)
